Source: US20240034729A9, “HETEROCYCLIC COMPOUND, INTERMEDIATE, PREPARATION METHOD THEREFOR AND APPLICATION THEREOF” (WUHAN LL SCIENCE AND TECHNOLOGY DEVELOPMENT CO., LTD., priority 2018, published 2024)

How the values were obtained:
[1] = molecular target: hP2X2/3 (heterodimeric receptors formed by human purinergic P2X receptors subtype 2 and subtype 3) (Homo sapiens (Human), UniProt P56373+Q9UBL9); experiment: FLIPR calcium assay, hP2X2/3 expressed in HEK293 cells (P2X2/3 receptor selectivity); assay type: cell-based; conditions: for IC50: HEK293 cells expressing hP2X2/3, agonist BZ-ATP 5 μM, unit inferred
[2] = In vitro metabolic stability, rat liver microsome; assay type: in vitro ADME; conditions: liver microsomes, 1 mg/mL liver microsome protein, 37° C., NA = essentially not metabolized, read-out: T1/2 in rat liver microsome
Protocol: (§1) The in vitro metabolic stability of the compounds disclosed herein was determined through incubation of liver microsomes of various species. […] At each time point, 100 μL of the reaction mixture was added into a centrifuge tube containing 400 μL of internal standard working solution (containing a 200 ng/mL solution of dexamethasone, diclofenac, tolbutamide and labetalol in acetonitrile) precooled at 0° C. so as to terminate the reaction, and the mixture was then centrifuged at 10,000 g for 10 min at 4° C. The supernatant was collected for LC-MS assay so as to obtain the values of in vitro metabolic half-life of the test compounds in liver microsomes of various species.

[3] = molecular target: hP2X3 (human purinergic P2X receptor subtype 3) (Homo sapiens (Human), UniProt P56373); experiment: FLIPR calcium assay, hP2X3 expressed in HEK293 cells; assay type: cell-based; conditions: read-out: P2X3 IC50
[4] = In vitro cytotoxicity assay, CCK-8 method; assay type: cell-based; conditions: human, HepG2 cells
Protocol: In vitro cytotoxicity assay for the compounds disclosed herein was performed in HepG2 cells using the CCK-8 method. HepG2 cells (Beina Bio) in the logarithmic growth phase were collected, the concentration of cell suspension was adjusted, and then the cells were plated on a 96-well cell culture plate at 50,000 cells/well. The cells were then incubated overnight in a cell incubator of 5% […] at 37° C., and after 80-90% cell confluence was achieved, test compounds or vehicle (DMSO) at various concentration gradients were added after medium change. The plate was incubated in a cell incubator of 5% […] at 37° C. for 48 h. After the treatment, the medium in the plate was discarded. The plate was washed twice with PBS, added with CCK-8 working solution (Beyotime) at 100 μL per well, and then incubated at 37° C. for 1.5 h away from light. Absorbance at OD450nm was measured for each well on a microplate reader, and CC50 value of each compound was analyzed and calculated.

[5] = In vitro metabolic stability, human liver microsome; assay type: in vitro ADME; conditions: liver microsomes, 1 mg/mL liver microsome protein, 37° C., NA = essentially not metabolized, read-out: T1/2 in human liver microsome
Protocol: as §1

[6] = In vitro metabolic stability, guinea pig liver microsome; assay type: in vitro ADME; conditions: liver microsomes, 1 mg/mL liver microsome protein, 37° C., NA = essentially not metabolized, read-out: T1/2 in guinea pig liver microsome
Protocol: The in vitro metabolic stability of the compounds disclosed herein was determined through incubation of liver microsomes of various species. A proper amount of test compound was added into a liver microsome reaction system (1 mg/mL liver microsome protein, 25 U/mL glucose-6 phosphate dehydrogenase, 1 mM NADP, 6 mM D-glucose 6-phosphate and 5 mM MgCl2), and then the mixture was incubated in a water bath kettle at 37° C. to start the reaction. At each time point, 100 μL of the reaction mixture was added into a centrifuge tube containing 400 μL of internal standard working solution (containing a 200 ng/mL solution of dexamethasone, diclofenac, tolbutamide and labetalol in acetonitrile) precooled at 0° C. so as to terminate the reaction, and the mixture was then centrifuged at 10,000 g for 10 min at 4° C. The supernatant was collected for LC-MS assay so as to obtain the values of in vitro metabolic half-life of the test compounds in liver microsomes of various species.

Sequence of hP2X3 (human purinergic P2X receptor subtype 3) (P56373 whole entry): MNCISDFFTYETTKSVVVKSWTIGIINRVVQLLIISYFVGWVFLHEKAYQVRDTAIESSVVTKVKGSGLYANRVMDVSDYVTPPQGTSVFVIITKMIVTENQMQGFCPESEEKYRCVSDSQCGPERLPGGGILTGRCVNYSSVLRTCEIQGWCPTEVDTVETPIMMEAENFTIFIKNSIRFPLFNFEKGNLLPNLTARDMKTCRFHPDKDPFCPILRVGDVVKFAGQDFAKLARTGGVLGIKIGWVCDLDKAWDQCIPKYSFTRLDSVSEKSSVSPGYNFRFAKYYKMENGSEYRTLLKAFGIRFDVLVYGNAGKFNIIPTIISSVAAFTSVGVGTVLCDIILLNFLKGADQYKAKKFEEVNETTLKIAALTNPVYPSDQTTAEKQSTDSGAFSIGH
Sequence of hP2X2/3 (heterodimeric receptors formed by human purinergic P2X receptors subtype 2 and subtype 3) (P56373 whole entry): as above
Sequence of hP2X2/3 (heterodimeric receptors formed by human purinergic P2X receptors subtype 2 and subtype 3) (Q9UBL9 whole entry): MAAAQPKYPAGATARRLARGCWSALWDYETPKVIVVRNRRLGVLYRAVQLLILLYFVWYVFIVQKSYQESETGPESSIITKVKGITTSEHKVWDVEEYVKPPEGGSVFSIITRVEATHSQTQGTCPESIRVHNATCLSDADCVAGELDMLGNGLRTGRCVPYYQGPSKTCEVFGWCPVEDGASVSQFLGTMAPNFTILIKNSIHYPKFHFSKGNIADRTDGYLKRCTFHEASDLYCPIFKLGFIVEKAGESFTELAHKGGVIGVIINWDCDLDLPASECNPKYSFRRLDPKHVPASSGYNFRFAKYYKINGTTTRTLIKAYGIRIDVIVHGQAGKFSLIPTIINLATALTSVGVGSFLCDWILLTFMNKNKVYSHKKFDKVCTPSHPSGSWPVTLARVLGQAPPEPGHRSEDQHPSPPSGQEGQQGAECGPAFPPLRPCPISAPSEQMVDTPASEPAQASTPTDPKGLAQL

Row | half-life [6] [h] | SMILES | Folds of selectivity [1] | IC50 [1] [µM] | half-life [2] [h] | IC50 [3] [µM] | CC50 at 48 h [4] [µM] | half-life [5] [h]
1 | – | COC(=O)N1CCO[C@@H](Cc2c(-c3c(F)cc(NC(=O)CCC(=O)O)cc3F)nc3cc(C)ccn23)C1 [Compound 25, (S)-4-((3,5-difluoro-4-(3-((4-(methoxycarbonyl)morpholin-2-yl)methyl)-7-methylimidazo[1,2-a]pyridin-2-yl)-phenyl)-amino)-4-oxobutanoic acid] | A (key: A: folds of selectivity >1000; B: 200< folds of selectivity ≤1000; C: folds of selectivity ≤200) | > 60 | 3.8 | < 0.01 | > 100 | 4.97
2 | – | COC(=O)N1CCO[C@@H](Cc2c(-c3ccc(S(N)(=O)=O)cc3Cl)nc3cc(Cl)ccn23)C1 [Compound 178, methyl (S)-2-((7-chloro-2-(2-chloro-4-sulfamoylphenyl)imidazo[1,2-a]pyridin-3-yl)methyl)morpholine-4-carboxylate] | – | – | – | 0.0001 | – | 20.6
3 | 0.0712 | COC(=O)N1CCO[C@@H](Cc2c(-c3c(F)cc(-c4ccco4)cc3F)nc3cc(C)ccn23)C1 [Compound 11, methyl (S)-2-((2-(2,6-difluoro-4-(furan-2-yl)phenyl)-7-methylimidazo[1,2-a]pyridin-3-yl)methyl)morpholine-4-carboxylate] | – | – | 0.0942 | – | 79.4 | 2.52
4 | – | CC(=O)N1CCO[C@@H](Cc2c(-c3c(F)cc(-n4ccnc4)cc3F)nc3cc(Cl)ccn23)C1 [Compound 158, (S)-1-(2-((7-chloro-2-(2,6-difluoro-4-(1H-imidazol-1-yl)phenyl)imidazo[1,2-a]pyridin-3-yl)methyl)morpholino)ethan-1-one] | A (key: A: folds of selectivity >1000; B: 200< folds of selectivity ≤1000; C: folds of selectivity ≤200) | > 60 | – | < 0.01 | > 100 | –
5 | 0.794 | COC(=O)N1CCO[C@@H](Cc2c(-c3c(F)cc(-n4ccnc4)cc3F)nc3cc(C)ccn23)C1 [Compound 5, methyl (S)-2-((2-(2,6-difluoro-4-(1H-imidazol-1-yl)phenyl)-7-methylimidazo[1,2-a]pyridin-3-yl)methyl)morpholine-4-carboxylate] | – | – | 0.622 | – | 72 | 10.8
6 | – | CC(=O)Nc1cc(F)c(-c2nc3cc(C)ccn3c2C[C@H]2CN(C(C)=O)CCO2)c(F)c1 [Compound 167, (S)—N-(4-(3-((4-acetylmorpholin-2-yl)methyl)-7-methylimidazo[1,2-a]pyridin-2-yl)-3,5-difluorophenyl)acetamide] | – | – | – | – | > 100 | –
7 | – | CC(=O)N1CCO[C@@H](Cc2c(-c3c(F)cc(-n4cccn4)cc3F)nc3cc(Cl)ccn23)C1 [Compound 160, (S)-1-(2-((7-chloro-2-(2,6-difluoro-4-(1H-pyrazol-1-yl)phenyl)imidazo[1,2-a]pyridin-3-yl)methyl)morpholino)ethan-1-one] | – | – | – | – | > 100 | –
8 | – | COC(=O)N1CCO[C@@H](Cc2c(-c3ncc(S(N)(=O)=O)nc3Cl)nc3cc(C)ccn23)C1 [Compound 191] | A (key: A: folds of selectivity >1000; B: 200< folds of selectivity ≤1000; C: folds of selectivity ≤200) | > 60 | – | < 0.01 | – | –
9 | 0.126 | COC(=O)N1CCO[C@@H](Cc2c(-c3c(F)cc(-c4cccs4)cc3F)nc3cc(C)ccn23)C1 [Compound 12, methyl (S)-2-((2-(2,6-difluoro-4-(thiophen-2-yl)phenyl)-7-methylimidazo[1,2-a]pyridin-3-yl)methyl)morpholine-4-carboxylate] | – | – | 0.13 | – | 52.7 | 1.53
10 | – | COC(=O)N1CCO[C@@H](Cc2c(-c3c(F)cc(NC(=O)CC4(C(=O)O)CC4)cc3F)nc3cc(C)ccn23)C1 [Compound 61, (S)-1-(2-((3,5-difluoro-4-(3-((4-(carbomethoxy<methoxycarbonyl>)morpholin-2-yl)methyl)-7-methylimidazo [1,2-a]pyridin-2-yl)phenyl)amino)-2-carbonylethyl)cyclopropanecarboxylic acid] | A (key: A: folds of selectivity >1000; B: 200< folds of selectivity ≤1000; C: folds of selectivity ≤200) | > 60 | – | < 0.01 | – | –
11 | – | CC(=O)N1CCO[C@@H](Cc2c(-c3c(F)cc(-c4ncco4)cc3F)nc3cc(C)ccn23)C1 [Compound 163, (S)-1-(2-((2-(2,6-difluoro-4-(oxazol-2-yl)phenyl)-7-methylimidazo[1,2-a]pyridin-3-yl)methyl)morpholino)ethan-1-one] | – | – | – | – | > 100 | –
12 | – | COC(=O)N1CCO[C@@H](Cc2c(-c3c(F)cc(S(N)(=O)=O)cc3Cl)nc3cc(C)ccn23)C1 [Compound 177, methyl (S)-2-((2-(2-chloro-6-fluoro-4-sulfamoylphenyl)-7-methylimidazo[1,2-a]pyridin-3-yl)methyl)morpholine-4-carboxylate] | – | – | – | 0.0011 | – | 5.41
13 | – | CC(=O)N1CCO[C@@H](Cc2c(-c3c(F)cc(-c4ncco4)cc3F)nc3cc(Cl)ccn23)C1 [Compound 159, (S)-1-(2-((7-chloro-2-(2,6-difluoro-4-(oxazol-2-yl)phenyl)imidazo[1,2-a]pyridin-3-yl)methyl)morpholino)ethan-1-one] | – | – | – | – | > 100 | –
14 | 0.0375 | COC(=O)N1CCO[C@@H](Cc2c(-c3c(F)cc(-c4cccn4C)cc3F)nc3cc(C)ccn23)C1 [Compound 13, methyl (S)-2-((2-(2,6-difluoro-4-(1-methyl-1H-pyrrol-2-yl)phenyl)-7-methylimidazo[1,2-a]pyridin-3-yl)methyl)morpholine-4-carboxylate] | – | – | 0.0373 | – | 66.5 | 1.03
15 | – | CC(=O)N1CCO[C@@H](Cc2c(-c3c(F)cc(-c4nnc[nH]4)cc3F)nc3cc(Cl)ccn23)C1 [Compound 166] | A (key: A: folds of selectivity >1000; B: 200< folds of selectivity ≤1000; C: folds of selectivity ≤200) | > 60 | – | < 0.01 | > 100 | –
16 | – | COC(=O)N1CCO[C@@H](Cc2c(-c3c(F)cc(NC(C)=O)cc3F)nc3cc(C(F)F)ccn23)C1 [Compound 151] | A (key: A: folds of selectivity >1000; B: 200< folds of selectivity ≤1000; C: folds of selectivity ≤200) | > 60 | – | < 0.01 | – | –
17 | – | COC(=O)N1CCO[C@@H](Cc2c(-c3ccc(S(N)(=O)=O)cc3C(F)(F)F)nc3cc(C)ccn23)C1 [Compound 189, methyl (S)-2-((7-methyl-2-(4-sulfamoyl-2-(trifluoromethyl)phenyl)imidazo[1,2-a]pyridin-3-yl)methyl)morpholine-4-carboxylate] | – | – | – | 0.01 | – | 2.41

Row | SMILES | half-life [6] [h] | Folds of selectivity [1] | IC50 [1] [µM] | half-life [2] [h] | IC50 [3] [µM] | CC50 at 48 h [4] [µM] | half-life [5] [h]
18 | CC(=O)N1CCO[C@@H](Cc2c(-c3c(F)cc(S(N)(=O)=O)cc3F)nc3cc(C)ccn23)C1 [Compound 173, (S)-4-(3-((4-acetylmorpholin-2-yl)methyl)-7-methylimidazo[1,2-a]pyridin-2-yl)-3,5-difluorobenzenesulfonamide] | 10.8 | 18811 | 33.9 | 1.69 | 0.0018 | > 200 | –
19 | COC(=O)N1CCO[C@@H](Cc2c(-c3c(F)cc(S(C)(=O)=O)cc3F)nc3cc(C)ccn23)C1 [Compound 175, methyl (S)-2-((2-(2,6-difluoro-4-(methylsulfonyl)phenyl)-7-methylimidazo[1,2-a]pyridin-3-yl)methyl)morpholine-4-carboxylate] | > 0.5 | – | – | > 0.5 | > 10 | – | > 0.5
20 | CC(=O)N1CCO[C@@H](Cc2c(-c3c(F)cc(S(N)(=O)=O)cc3F)nc3cc(Cl)ccn23)C1 [Compound 174, (S)-4-(3-((4-acetylmorpholin-2-yl)methyl)-7-chloroimidazo[1,2-a]pyridin-2-yl)-3,5-difluorobenzenesulfonamide] | 18.5 | – | – | 6.64 | 0.0016 | > 200 | –
